Measurements reported in ChEMBL document CHEMBL3351221, “Synthetic derivatives of aromatic abietane diterpenoids and their biological activities” (Eur J Med Chem, 2014).
Converted amounts (≈) assume the structure as drawn. Values belong to the molecule of their own block, whether it stands above or below them.

How the values were obtained:
[1] = system: Staphylococcus aureus; assay: Antimicrobial activity against methicillin-resistant Staphylococcus aureus; assay type: functional
[2] = system: Enterococcus; assay: Antimicrobial activity against Vancomycin-resistant Enterococcus; assay type: functional
[3] = system: Mus musculus; assay: Gastroprotective activity in mouse assessed as reduction in HCl/EtOH-induced gastric lesions at 100 mg/kg; assay type: functional; details: Stomach
[4] = system: MRC5; assay: Cytotoxicity against human MRC5 cells; assay type: cell-based
[5] = system: AGS; assay: Cytotoxicity against human AGS cells; assay type: cell-based
[6] = system: Mus musculus; assay: Gastroprotective activity in mouse assessed as reduction in HCl/EtOH-induced gastric lesions at 10 mg/kg; assay type: functional; details: Stomach
[7] = system: Mus musculus; assay: Gastroprotective activity in mouse assessed as reduction in HCl/EtOH-induced gastric lesions at 20 mg/kg; assay type: functional; details: Stomach
[8] = system: SMMC-7721; assay: Cytotoxicity against human SMMC7721 cells; assay type: functional, cell-based
[9] = system: A549; assay: Cytotoxicity against human A549 cells; assay type: functional, cell-based
[10] = system: C6; assay: Cytotoxicity against rat C6 cells; assay type: functional, cell-based
[11] = system: MCF7; assay: Cytotoxicity against human MCF7 cells; assay type: functional, cell-based
[12] = Cytotoxicity against human HL60 cells; assay type: functional, cell-based; details: HL-60
[13] = Cytotoxicity against human Hey-1B cells; assay type: functional, cell-based
[14] = Cytotoxicity against human PC3 cells; assay type: functional, cell-based; details: PC-3
[15] = system: Escherichia coli; assay: Antimicrobial activity against Escherichia coli; assay type: functional
[16] = system: Pseudomonas fluorescens; assay: Antimicrobial activity against Pseudomonas fluorescens; assay type: functional
[17] = system: Staphylococcus aureus; assay: Antimicrobial activity against Staphylococcus aureus; assay type: functional

Structure (SMILES): CC(C)c1cc2c(cc1O)[C@@]1(C)CCCC(C)(C)[C@@H]1[C@H](O)C2
MIC [1]: 4 µg/mL (≈ 13.2 µM) | MIC [2]: 4 µg/mL (≈ 13.2 µM)

Structure (SMILES): CC(C)c1cc2c(cc1O)[C@@]1(C)CCCC(C)(C)[C@@H]1C(=O)C2
MIC [1]: 4 µg/mL (≈ 13.3 µM) | MIC [2]: 4 µg/mL (≈ 13.3 µM)

Structure (SMILES): Cc1cc(C)cc(NC(=O)[C@]2(C)CCC[C@]3(C)c4ccc(C(C)C)cc4CC[C@@H]23)c1
inhibition in vivo at 100 mg/kg [3]: 67% | IC50 [4]: > 1000 µM | IC50 [5]: > 1000 µM

Structure (SMILES): CC(C)c1cc2c(cc1OC=O)[C@@]1(C)CCCC(C)(C)[C@@H]1CC2
IC50 [4]: 19 µM | IC50 [5]: 18 µM

Structure (SMILES): CCCOC(=O)[C@]12CCCC(C)(C)[C@@H]1CCc1cc(C(C)C)c(OC)c(OC(=O)CCC)c12
inhibition in vivo at 10 mg/kg [6]: 73%

Structure (SMILES): Cc1c(OCC(F)(F)F)ccnc1C[S+]([O-])c1nc2ccccc2[nH]1 (stereo not given) [LANSOPRAZOLE]
inhibition in vivo at 10 mg/kg [6]: 64%

Structure (SMILES): CC(Cl)C(=O)Oc1cc2c(cc1C(C)C)CC[C@H]1C(C)(C)CCC[C@]21C (stereo not given in full)
IC50 [4]: 19 µM | IC50 [5]: 18 µM | inhibition in vivo at 20 mg/kg [7]: 76%

Structure (SMILES): CC(C)c1ccc2c(c1)CC[C@H]1[C@](C)(C/N=C/c3cccc(F)c3)CCC[C@]21C
IC50 [8]: 6.65 µM | IC50 [9]: 0.75 µM | IC50 [10]: 0.81 µM | IC50 [11]: 10.7 µM

Structure (SMILES): CC(=O)OC[C@H]1O[C@@H](Oc2cc3c(cc2C(C)C)CC[C@H]2C(C)(C)CCC[C@]32C)[C@H](OC(C)=O)[C@@H](OC(C)=O)[C@@H]1OC(C)=O
IC50 [4]: > 1000 µM | IC50 [5]: > 1000 µM | inhibition in vivo at 20 mg/kg [7]: 72%

Structure (SMILES): CC(C)c1cc2c(c(O)c1O)[C@@]1(C)CCCC(C)(C)[C@@H]1CC2=O [DEMETHYLCRYPTOJAPONOL]
MIC [1]: 4 µg/mL (≈ 12.6 µM) | MIC [2]: 4 µg/mL (≈ 12.6 µM)

Structure (SMILES): COC(=O)C[C@H](NC(=O)[C@]1(C)CCC[C@]2(C)c3ccc(C(C)C)cc3CC[C@@H]12)C(=O)OC
IC50 [12]: 2.3 µM

Structure (SMILES): COc1ccc(NC(=O)[C@]2(C)CCC[C@]3(C)c4ccc(C(C)C)cc4CC[C@@H]23)c(OC)c1
inhibition in vivo at 100 mg/kg [3]: 67% | IC50 [4]: > 1000 µM | IC50 [5]: > 1000 µM

Structure (SMILES): CC(C)c1cc2c(cc1[N+](=O)[O-])[C@@]1(C)CCC[C@@](C)(CNC(=O)c3ccc([N+](=O)[O-])cc3)[C@@H]1CC2
IC50 [13]: 11.3 µg/mL (≈ 23.6 µM) | IC50 [14]: 5.7 µg/mL (≈ 11.9 µM)

Structure (SMILES): Cc1ccc(NC(=O)[C@]2(C)CCC[C@]3(C)c4ccc(C(C)C)cc4CC[C@@H]23)cc1
inhibition in vivo at 100 mg/kg [3]: 67% | IC50 [4]: > 1000 µM | IC50 [5]: > 1000 µM

Structure (SMILES): COC(=O)[C@]12CCCC(C)(C)[C@@H]1CCc1cc(C(C)C)c(OC(=O)Cc3cc4ccccc4[nH]3)c(OC(=O)Cc3cc4ccccc4[nH]3)c12
inhibition in vivo at 10 mg/kg [6]: 73%

MIC [15]: 3.9 µg/mL (≈ 8.61 µM) | MIC [16]: 3.9 µg/mL (≈ 8.61 µM)
Structure (SMILES): CC(C)c1ccc2c(c1)CC[C@H]1[C@](C)(C(=O)N/N=C/c3cc(Cl)ccc3O)CCC[C@]21C

Structure (SMILES): CC(C)c1cc2c(cc1O)[C@@]1(C)CCCC(C)(C)[C@@H]1CC2 [FERRUGINOL]
IC50 [4]: 19 µM | IC50 [5]: 18 µM

MIC [17]: 7.81 µg/mL | MIC [15]: 250 µg/mL
Structure (SMILES): CC(C)c1ccc2c(c1)CC[C@H]1[C@](C)(CNCc3ccccc3)CCC[C@]21C.Cl

Structure (SMILES): CCCCCCCC/C=C/CCCCCCCC(=O)Oc1cc2c(cc1C(C)C)CC[C@H]1C(C)(C)CCC[C@]21C
IC50 [4]: > 1000 µM | inhibition in vivo at 20 mg/kg [7]: 50%

Structure (SMILES): CC(C)c1cc2c(cc1O[C@@H]1O[C@H](CO)[C@H](O)[C@H](O)[C@H]1O)[C@@]1(C)CCCC(C)(C)[C@@H]1CC2
IC50 [4]: 19 µM | IC50 [5]: 18 µM | inhibition in vivo at 20 mg/kg [7]: 61%

MIC [17]: 7.81 µg/mL | MIC [15]: 250 µg/mL
Structure (SMILES): CC(C)c1ccc2c(c1)CC[C@H]1[C@](C)(C[N+](CCO)(CCO)Cc3ccccc3)CCC[C@]21C.[Cl-]

Structure (SMILES): CCC(=O)Oc1cc2c(cc1C(C)C)CC[C@H]1C(C)(C)CCC[C@]21C
IC50 [4]: 19 µM | IC50 [5]: 18 µM

Structure (SMILES): COC(=O)[C@H](C)NC(=O)[C@]1(C)CCC[C@]2(C)c3ccc(C(C)C)cc3CC[C@@H]12
IC50 [12]: 2.3 µM

Structure (SMILES): CC(=O)NC[C@]1(C)CCC[C@]2(C)c3cc(/N=C/c4ccc(O)cc4O)c(C(C)C)cc3CC[C@@H]12
IC50 [13]: 15 µg/mL (≈ 32.4 µM)

Structure (SMILES): CC(C)c1ccc2c(c1)CC[C@H]1[C@](C)(C/N=C/c3ccc(F)cc3)CCC[C@]21C
IC50 [8]: 44.5 µM

Structure (SMILES): COC(=O)[C@H](Cc1ccccc1)NC(=O)[C@]1(C)CCC[C@]2(C)c3ccc(C(C)C)cc3CC[C@@H]12
IC50 [12]: 2.3 µM

Structure (SMILES): CC(=O)NC[C@]1(C)CCC[C@]2(C)c3cc(/N=C/c4cc(O)ccc4O)c(C(C)C)cc3CC[C@@H]12
IC50 [13]: 15 µg/mL (≈ 32.4 µM)

Structure (SMILES): CC(C)c1cc2c(c(O)c1O)[C@@]1(C)CCCC(C)(C)C1=CC2=O [SALVINOLONE]
MIC [1]: 4 µg/mL (≈ 12.7 µM) | MIC [2]: 4 µg/mL (≈ 12.7 µM)

Structure (SMILES): CCCCCCCCCCCCCCCC(=O)Oc1cc2c(cc1C(C)C)CC[C@H]1C(C)(C)CCC[C@]21C
IC50 [4]: > 1000 µM | inhibition in vivo at 20 mg/kg [7]: 50%

Structure (SMILES): CC(C)c1ccc2c(c1)CC[C@H]1[C@](C)(C(=O)Nc3cccc([N+](=O)[O-])c3)CCC[C@]21C
inhibition in vivo at 100 mg/kg [3]: 67% | IC50 [4]: > 1000 µM | IC50 [5]: > 1000 µM
